Data set [1] is described as follows: Bioavailability studies in mice. Type of data set: in vivo. Particulars: mouse; C57BL/6 mice; single intravenous dose 1 mg/kg vs single oral dose 10 mg/kg; plasma LC-MS/MS. As for the experimental part: C57BL/6 mice of 8-9 weeks old were used. For each test compound, two groups of 3 animals each were used. One group was administered a single intravenous dose of 1 mg/kg (vehicle 100% DMSO) through the tail vein and the other group was administered a single oral dose of 10 mg/kg through gavage needle. The group that was administered an oral dose was fasted overnight. Blood samples were collected after 0.083, 0.25, 0.5, 1, 2, 4, 6, 8 and 24 hours following intravenous administration, and after 0.25, 0.5, 1, 2, 4, 6, 8 and 24 hours following oral administration. Blood samples were taken from saphenous vein. 0.2% EDTA was used as the anticoagulant. The samples were analyzed by a discovery grade bioanalytical method developed for the estimation of test compound in plasma, using an LC-MS/MS system.

In data set [2] the test system is HepaRG cells. Nature of the data set: HepaRG-based assay: 3H-taurocholic acid uptake in differentiated HepaRG cells. It is filed as cell-based. To be noted: Homo sapiens, HepaRG, 0.3 μM 3H-taurocholic acid and 7.5 μM cold taurocholic acid, 30 minutes. The procedure, abridged: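 Differentiated HepaRG cells cultured 7 days post-seeding were exposed for 30 min at 37 °C to 0.3 μM 3H-taurocholic acid plus 7.5 μM cold taurocholic acid with inhibitor (3-fold dilutions, 0.2% DMSO). Uptake was stopped on ice, washed with 1 mM unlabelled taurocholic acid, and counted by scintillation.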

The target of data set [3] is T1, Human LBAT (Homo sapiens, UniProt Q14973).
T1 construct: expressed in transfected cells; kept under Geneticin selection
T1 sequence (Q14973 1-349): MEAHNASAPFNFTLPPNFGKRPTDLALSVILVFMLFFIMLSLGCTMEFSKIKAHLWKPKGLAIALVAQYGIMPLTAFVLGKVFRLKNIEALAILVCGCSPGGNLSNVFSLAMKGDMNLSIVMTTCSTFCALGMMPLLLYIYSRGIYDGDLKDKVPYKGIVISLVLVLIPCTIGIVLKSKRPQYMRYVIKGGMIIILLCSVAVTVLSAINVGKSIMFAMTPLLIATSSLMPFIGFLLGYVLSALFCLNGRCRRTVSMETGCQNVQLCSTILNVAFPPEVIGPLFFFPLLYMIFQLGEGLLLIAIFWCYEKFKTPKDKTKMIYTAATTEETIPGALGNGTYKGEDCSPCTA
Nature of the data set: LBAT (h/m) assay: 3H-taurocholic acid uptake in human LBAT-overexpressing cells. It is filed as cell-based. Particulars: 0.3 μM 3H-taurocholic acid and 7.5 μM cold taurocholic acid, 20 minutes, read-out: hLBAT IC50. The gist of the method: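 LBAT-overexpressing cells, serum-free MEM-alpha, 20 min at 37° C with inhibitor (3-fold, 10-point) plus 0.3 μM 3H-taurocholic acid and cold taurocholic acid (7.5 μM human; 25 μM mouse), 0.2% DMSO. Stopped on ice, washed with 1 mM unlabelled taurocholate; uptake by scintillation counting.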

The target of data set [4] is T2, Human ASBT (Homo sapiens, UniProt Q12908).
T2 construct: expressed in transfected cells; kept under Puromycin selection
T2 sequence (Q12908 1-348): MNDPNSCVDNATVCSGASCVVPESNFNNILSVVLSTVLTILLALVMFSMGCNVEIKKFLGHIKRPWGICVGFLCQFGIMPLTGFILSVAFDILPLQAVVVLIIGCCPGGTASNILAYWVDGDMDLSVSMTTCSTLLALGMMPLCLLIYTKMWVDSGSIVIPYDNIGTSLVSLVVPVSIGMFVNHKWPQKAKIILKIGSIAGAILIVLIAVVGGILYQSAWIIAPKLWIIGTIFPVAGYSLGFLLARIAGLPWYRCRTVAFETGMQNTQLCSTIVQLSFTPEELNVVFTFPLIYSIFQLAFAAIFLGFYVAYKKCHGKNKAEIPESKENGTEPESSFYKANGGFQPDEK
Nature of the data set: ASBT (h/m) assay: 3H-taurocholic acid uptake in human ASBT-overexpressing cells. Type of data set: cell-based. Particulars: 0.25 μM 3H-taurocholic acid and 5 μM cold taurocholic acid, 20 minutes, read-out: hASBT IC50. The procedure, abridged: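 ASBT-overexpressing cells, seeded 48 h earlier, took up 0.25 µM 3H-taurocholic acid plus 5 µM cold taurocholate for 20 min at 37 °C with inhibitor (10-point 3-fold series, top 10 µM, 0.2% DMSO). Ice stop, washes with cold 1 mM taurocholate in HEPES-HBSS pH 7.4, scintillation counting.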

As for `CCCC[C@@]1(CC)CN(c2ccccc2)c2cc(SC)c(O/C=C(\F)C(=O)O)cc2S(=O)(=O)N1C` (single isomer, unassigned) [Example 99], the bioavailability (commonly the share of a dose that reaches the circulation, judged against a reference dose that is usually intravenous) in data set [1] was found to be 20%. The results for the IC50 in data set [2] and in data set [3] were 325 nM and 4.4 nM, respectively.

Turning to `CCCCC1(CCCC)CN(c2ccc(F)c(F)c2)c2cc(SC)c(O/C=C(\F)C(=O)O)cc2S(=O)(=O)C1` [Example 107, (Z)-3-((3,3-dibutyl-5-(3,4-difluorophenyl)-7-(methylthio)-1,1-dioxido-2,3,4,5-tetrahydro-1,5-benzothiazepin-8-yl)oxy)-2-fluoroacrylic Acid], the values for the IC50 in data set [2], in data set [4] and in data set [3] were 365 nM, 59 nM and 50 nM, respectively.

As to `CCCCC1(CC)CN(c2ccccc2)c2cc(N(C)C)c(O/C=C(\F)C(=O)O)cc2S(=O)(=O)C1` (stereo not drawn) [Example 108, (Z)-3-((3-butyl-7-(dimethylamino)-3-ethyl-1,1-dioxido-5-phenyl-2,3,4,5-tetrahydro-1,5-benzothiazepin-8-yl)oxy)-2-fluoroacrylic Acid], the values for the IC50 in data set [2], in data set [4] and in data set [3] were 447 nM, 8.5 nM and 5.9 nM, respectively.
